We go through 32 compounds from patent publication US10934274B2, “Quinoline derivatives as TAM RTK inhibitors” (Qurient Co., Ltd., priority 2015, dated 2021).

One test concerns the target T1, TYRO3 (Homo sapiens, UniProt Q06418).
T1 construct: purchased Life Technologies
T1 sequence (Q06418 41-890): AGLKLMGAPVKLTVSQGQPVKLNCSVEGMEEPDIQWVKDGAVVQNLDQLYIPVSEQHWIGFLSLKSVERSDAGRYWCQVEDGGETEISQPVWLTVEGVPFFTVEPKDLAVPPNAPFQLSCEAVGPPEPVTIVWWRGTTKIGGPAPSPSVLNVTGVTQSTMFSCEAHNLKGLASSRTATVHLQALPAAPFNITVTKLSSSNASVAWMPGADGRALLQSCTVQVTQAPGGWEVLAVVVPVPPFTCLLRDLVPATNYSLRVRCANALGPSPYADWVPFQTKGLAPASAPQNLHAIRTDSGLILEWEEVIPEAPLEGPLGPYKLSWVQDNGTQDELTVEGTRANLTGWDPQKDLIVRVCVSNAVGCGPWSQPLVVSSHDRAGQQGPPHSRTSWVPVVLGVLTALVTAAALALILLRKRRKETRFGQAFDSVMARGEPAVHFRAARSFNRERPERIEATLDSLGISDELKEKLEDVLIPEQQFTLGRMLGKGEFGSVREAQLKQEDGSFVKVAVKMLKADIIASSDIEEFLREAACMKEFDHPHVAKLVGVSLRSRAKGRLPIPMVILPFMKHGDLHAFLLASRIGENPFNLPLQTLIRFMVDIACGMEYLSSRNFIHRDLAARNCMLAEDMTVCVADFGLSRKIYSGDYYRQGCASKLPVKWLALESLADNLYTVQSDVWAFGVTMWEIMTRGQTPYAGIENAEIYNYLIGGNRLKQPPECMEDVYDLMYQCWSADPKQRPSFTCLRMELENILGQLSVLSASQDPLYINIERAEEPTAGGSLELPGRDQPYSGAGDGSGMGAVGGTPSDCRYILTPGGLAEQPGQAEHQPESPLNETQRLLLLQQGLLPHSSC
Briefly: LanthaScreen Eu kinase binding assay, TYRO3. Conditions: Tracer 236. Background: Time-resolved FRET reads energy transfer from a long-lived donor to a nearby acceptor.

Another test concerns the target T2, Met (Homo sapiens, UniProt P08581).
T2 construct: purchased Life Technologies
Briefly: LanthaScreen Eu kinase binding assay, Met. Conditions: Tracer 236, read-out: cMet kinase binding activity (Kd).

Test [1] has as its system Axl phosphorylation in transiently transfected HEK293T cells. Briefly: Cellular Axl phosphorylation assay. It counts as cell-based. Conditions: Homo sapiens, HEK-293T; HEK293T cells transfected with Axl, 1 hour compound treatment, Phospho-Axl vs Total-Axl. In short, it runs like this:
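Axl-RTK was overexpressed by transfection in HEK293T cells to drive trans-autophosphorylation; cells were exposed to test compound for 1 hour. Phospho-Axl and total Axl were captured in lysates and detected by MSD electrochemiluminescence. IC50 was set between the DMSO group and the empty-vector-transfected minimum.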

T2 sequence (P08581 25-1390): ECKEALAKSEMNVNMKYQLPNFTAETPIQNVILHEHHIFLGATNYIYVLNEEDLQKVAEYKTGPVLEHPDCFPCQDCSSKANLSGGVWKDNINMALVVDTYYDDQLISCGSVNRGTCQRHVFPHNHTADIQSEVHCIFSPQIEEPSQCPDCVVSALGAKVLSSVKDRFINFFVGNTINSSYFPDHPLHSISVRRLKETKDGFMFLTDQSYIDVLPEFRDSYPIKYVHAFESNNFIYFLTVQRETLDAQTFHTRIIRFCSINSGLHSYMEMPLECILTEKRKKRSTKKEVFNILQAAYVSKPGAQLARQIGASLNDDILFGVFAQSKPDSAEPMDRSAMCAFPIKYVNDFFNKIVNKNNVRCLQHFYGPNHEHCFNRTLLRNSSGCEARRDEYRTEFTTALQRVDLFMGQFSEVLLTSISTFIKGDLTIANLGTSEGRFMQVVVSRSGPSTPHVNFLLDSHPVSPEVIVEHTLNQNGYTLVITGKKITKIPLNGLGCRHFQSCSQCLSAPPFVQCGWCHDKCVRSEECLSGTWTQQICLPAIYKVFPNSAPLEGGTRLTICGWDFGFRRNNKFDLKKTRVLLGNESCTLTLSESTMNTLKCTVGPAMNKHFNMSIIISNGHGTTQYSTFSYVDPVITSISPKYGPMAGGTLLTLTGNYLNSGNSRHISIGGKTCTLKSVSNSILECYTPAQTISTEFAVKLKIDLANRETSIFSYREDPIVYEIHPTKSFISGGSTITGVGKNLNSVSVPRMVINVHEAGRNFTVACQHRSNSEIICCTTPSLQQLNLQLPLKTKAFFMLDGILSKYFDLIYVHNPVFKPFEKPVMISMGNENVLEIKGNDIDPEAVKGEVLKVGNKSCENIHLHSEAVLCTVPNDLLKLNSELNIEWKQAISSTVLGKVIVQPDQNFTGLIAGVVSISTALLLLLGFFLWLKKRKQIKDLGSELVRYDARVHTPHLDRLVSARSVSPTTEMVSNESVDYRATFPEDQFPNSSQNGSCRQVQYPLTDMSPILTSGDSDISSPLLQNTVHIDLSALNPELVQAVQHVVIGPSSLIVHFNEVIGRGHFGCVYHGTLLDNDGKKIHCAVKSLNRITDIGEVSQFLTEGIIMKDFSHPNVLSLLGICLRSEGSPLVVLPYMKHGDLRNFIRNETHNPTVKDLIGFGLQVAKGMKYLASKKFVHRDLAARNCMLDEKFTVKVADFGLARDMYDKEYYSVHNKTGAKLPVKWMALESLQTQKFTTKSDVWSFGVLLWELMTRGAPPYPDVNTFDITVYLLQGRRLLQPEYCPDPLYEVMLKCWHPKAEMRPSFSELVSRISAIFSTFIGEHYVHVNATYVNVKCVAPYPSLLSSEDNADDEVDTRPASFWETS

As usually defined, the Kd is the free concentration of one partner at which half of the binding sites on the other are occupied at equilibrium, for simple one-to-one binding. What is called IC50 is the concentration needed to halve the response being measured. As for `CCOc1sc(-c2cccnc2)nc1C(=O)Nc1ccc(Oc2ccnc3cc(OC)c(OC)cc23)cn1` [Compound 45], the Kd at TYRO3 and on Met was under 100 nM throughout. In test [1], this compound yielded an IC50 of under 100 nM.

With `CCOc1cn(-c2cnc(N)nc2)nc1C(=O)Nc1ccc(Oc2ccnc3cc(OC)c(OC(F)(F)F)cc23)cn1` [Compound 241], the Kd at TYRO3 and on Met was at least 1000 nM throughout. The same compound came in with an IC50 in test [1] of under 100 nM.

As to `COc1cc2c(Oc3ccc(NC(=O)c4nn(-c5cnc(N)cn5)cc4OCC(F)(F)F)nc3)ccnc2cc1OC(C)C` [Compound 253], the Kd at TYRO3 and on Met was under 100 nM each time. This compound also had an IC50 in test [1] of under 100 nM.

On to `COc1cc2nccc(Oc3ccc(NC(=O)c4nn(-c5cnc(N)nc5)cc4OCC(F)(F)F)nc3)c2cc1OC` [Compound 237], for which the Kd on TYRO3 and at Met was under 100 nM each time. Moreover, in test [1], the IC50 is under 100 nM.

Consider `CCOc1cn(-c2cnccc2CO)nc1C(=O)Nc1ccc(Oc2ccnc3cc(OC)c(OC(F)(F)F)cc23)cn1` [Compound 233], for which the Kd was under 100 nM at TYRO3 and at least 1000 nM on Met. The compound further yielded an IC50 in test [1] of under 100 nM.

Take `COc1cc2nccc(Oc3ccc(NC(=O)c4nn(-c5ccc(F)cc5OC)cc4OCC4CC4)nc3)c2cc1OC` [Compound 264]: the Kd at TYRO3 and at Met was under 100 nM in each case. In test [1], this compound came in with an IC50 of under 100 nM.

For the compound `COc1cc2nccc(Oc3ccc(NC(=O)c4nn(-c5cnc(N)nc5)cc4OCC4CCC4)nc3)c2cc1OC` [Compound 262], the Kd at TYRO3 and on Met was under 100 nM in each case. The IC50 in test [1] was under 100 nM.

As to `CCOc1cn(-c2nccnc2C(C)(O)CO)nc1C(=O)Nc1ccc(Oc2ccnc3cc(OC)c(OC)cc23)cc1F` (stereo not drawn) [Compound 229], the Kd at TYRO3 and at Met was under 100 nM each time. This compound also returned an IC50 in test [1] of under 100 nM.

Consider `CCOc1cnn(-c2cccs2)c1C(=O)Nc1ccc(Oc2ccnc3cc(OC)c(OC)cc23)cn1` [Compound 20], for which the Kd on TYRO3 and at Met was 100 to 1000 nM throughout. The IC50 in test [1] was under 100 nM.

For `COc1cc2nccc(Oc3ccc(NC(=O)c4nn(-c5cncnc5C5CC5)cc4OCC(F)(F)F)nc3)c2cc1OC` [Compound 261], the Kd on TYRO3 and at Met was under 100 nM each time. This compound registered an IC50 in test [1] of under 100 nM.

On to `CCOc1cn(-c2cccs2)nc1C(=O)Nc1ccc(Oc2ccnc3cc(OC)c(OC)cc23)cn1` [Compound 17], for which the Kd at TYRO3 and at Met was under 100 nM each time. For the same compound, in test [1], the IC50 is under 100 nM.

For `COc1cc2nccc(Oc3ccc(NC(=O)c4nn(-c5ccc(OC(F)(F)F)cc5Cl)cc4OCC4CC4)nc3)c2cc1OC` [Compound 244], the Kd on TYRO3 and at Met was under 100 nM in each case. Besides, the IC50 in test [1] was under 100 nM.

Take `CCOc1cn(Cc2cnccn2)nc1C(=O)Nc1ccc(Oc2ccnc3cc(OC)c(OC)cc23)cc1F` [Compound 215]: the Kd on TYRO3 and on Met was under 100 nM in each case. In addition, the IC50 in test [1] was under 100 nM.

For `COc1cc2nccc(Oc3ccc(NC(=O)c4nn(-c5ccc(F)cc5C(C)=O)cc4OCC4CC4)nc3)c2cc1OC` [Compound 273], the Kd at TYRO3 and at Met was 100 to 1000 nM in each case. This compound also gave an IC50 in test [1] of under 100 nM.

As to `CCOc1cn(C)nc1C(=O)Nc1ccc(Oc2ccnc3cc(OC)c(OC)cc23)cn1` [Compound 29], the Kd at TYRO3 and on Met was 100 to 1000 nM throughout. The IC50 in test [1] was in the range of 100 to 1000 nM.

Take `CCOc1cn(-c2ccsc2)nc1C(=O)Nc1ccc(Oc2ccnc3cc(OC)c(OC)cc23)cn1` [Compound 18]: the Kd is under 100 nM on TYRO3 and 100 to 1000 nM at Met. In test [1], this compound yielded an IC50 of under 100 nM.

Regarding `CCOc1cn(-c2ncco2)nc1C(=O)Nc1ccc(Oc2ccnc3cc(OC)c(OC)cc23)cn1` [Compound 59], the Kd on TYRO3 and on Met was under 100 nM throughout. Besides, the IC50 in test [1] is under 100 nM.

For `COc1cc2nccc(Oc3ccc(NC(=O)c4nn(-c5ccc(F)c(C(C)=O)c5)cc4OCC4CC4)nc3)c2cc1OC` [Compound 274], the Kd at TYRO3 and on Met was under 100 nM each time. Further, in test [1], the IC50 is under 100 nM.

Take `CCOc1cn(-c2ccoc2)nc1C(=O)Nc1ccc(Oc2ccnc3cc(OC)c(OC)cc23)cn1` [Compound 33]: the Kd at TYRO3 and at Met was under 100 nM throughout. In test [1], this compound came in with an IC50 of under 100 nM.

In the case of `CCOc1cn(-c2cnccc2CCCN(C)C)nc1C(=O)Nc1ccc(Oc2ccnc3cc(OC)c(OC)cc23)cn1` [Compound 61], the Kd at TYRO3 and at Met was under 100 nM throughout. Also, in test [1], the IC50 is under 100 nM.

With `COc1cc2nccc(Oc3ccc(NC(=O)c4nn(-c5ccc(F)cc5Cl)cc4OCC4CC4)nc3)c2cc1OC` [Compound 263], the Kd at TYRO3 and at Met was under 100 nM each time. In test [1], this compound yielded an IC50 of under 100 nM.

`CCOc1cn(-c2cnc(N)nc2)nc1C(=O)Nc1ccc(Oc2ccnc3cc(OC(C)C)c(OC)cc23)cc1F` [Compound 230]: the Kd on TYRO3 and at Met was at least 1000 nM each time. This compound returned an IC50 in test [1] of under 100 nM.

With `COc1cc2nccc(Oc3ccc(NC(=O)c4nn(-c5ccc(F)cc5F)cc4OCC(F)(F)F)nc3)c2cc1OC` [Compound 268], the Kd at TYRO3 and on Met was under 100 nM each time. For the same compound, the IC50 in test [1] is under 100 nM.

As for `CCOc1cn(-c2cnccn2)nc1C(=O)Nc1ccc(Oc2ccnc3cc(OC)c(OC)cc23)cn1` [Compound 36], the Kd at TYRO3 and on Met was under 100 nM each time. The same compound showed an IC50 in test [1] of under 100 nM.

With `CCOc1cn(-c2cnccc2CO)nc1C(=O)Nc1ccc(Oc2ccnc3cc(OC(C)C)c(OC)cc23)cc1F` [Compound 231], the Kd at TYRO3 was under 100 nM; at Met it was 100 to 1000 nM. In test [1], this compound displayed an IC50 of under 100 nM.

As to `CCOc1cn(-c2cnccc2CCN(C)C)nc1C(=O)Nc1ccc(Oc2ccnc3cc(OC)c(OC)cc23)cn1` [Compound 65], the Kd at TYRO3 and at Met was under 100 nM each time. In test [1], this compound had an IC50 of under 100 nM.

Take `COc1cc2nccc(Oc3ccc(NC(=O)c4nn(-c5cccnc5)cc4OCC4CC4)nc3)c2cc1OC` [Compound 255]: the Kd at TYRO3 and at Met was under 100 nM in each case. Further, the IC50 in test [1] is under 100 nM.

For the compound `CCOc1cn(-c2cnsc2)nc1C(=O)Nc1ccc(Oc2ccnc3cc(OC)c(OC)cc23)cn1` [Compound 39], the Kd on TYRO3 and at Met was under 100 nM in each case. The IC50 in test [1] is under 100 nM.

As for `CCOc1cn(-c2ccncc2Cl)nc1C(=O)Nc1ccc(Oc2ccnc3cc(OC)c(OC)cc23)cn1` [Compound 26], the Kd at TYRO3 is 100 to 1000 nM; on Met it was under 100 nM. This compound also gave an IC50 in test [1] of under 100 nM.

Consider `COc1cc2nccc(Oc3ccc(NC(=O)c4nn(-c5cnc(N)cn5)cc4OCC(F)(F)F)nc3)c2cc1OC` [Compound 248], for which the Kd on TYRO3 and on Met was under 100 nM each time. The IC50 in test [1] was under 100 nM.

Take `CCOc1cn(CCOC)nc1C(=O)Nc1ccc(Oc2ccnc3cc(OC)c(OC)cc23)cn1` [Compound 64]: the Kd at TYRO3 and on Met was under 100 nM throughout. In test [1], this compound came in with an IC50 of under 100 nM.

Regarding `CCOc1cn(CCn2cccn2)nc1C(=O)Nc1ccc(Oc2ccnc3cc(OC)c(OC)cc23)cn1` [Compound 37], the Kd at TYRO3 and at Met was 100 to 1000 nM each time. In test [1], this compound had a 50% inhibitory concentration (IC50) of 100 to 1000 nM.
